pIC50: −log10 of the molar value.
Assays:
[1] = Binding affinity to human RFC expressed in Chinese hamster PC43-10 cells assessed as cell growth inhibition after 96 hrs by CellTiter-Blue assay
[2] = Binding affinity to human PCFT expressed in Chinese hamster R2/PCFT4 cells assessed as cell growth inhibition after 96 hrs by CellTiter-Blue assay
[3] = Binding affinity to human FRalpha expressed in Chinese hamster RT16 cells assessed as cell growth inhibition after 96 hrs by CellTiter-Blue assay

| Compound | pIC50 [1] | pIC50 [2] | pIC50 [3] |
| --- | --- | --- | --- |
| Nc1nc2[nH]cc(Cc3ccc(C(=O)N[C@@H](CCC(=O)O)C(=O)O)s3)c2c(=O)[nH]1 | < 6.00 | < 6.00 | < 6.00 |
| Nc1nc2[nH]cc(CCc3ccc(C(=O)N[C@@H](CCC(=O)O)C(=O)O)s3)c2c(=O)[nH]1 | 7.22 | 7.10 | 6.26 |
| Nc1nc2[nH]c(CCCCc3ccc(C(=O)N[C@@H](CCC(=O)O)C(=O)O)s3)cc2c(=O)[nH]1 [(S)-2-({5-[4-(2-Amino-4-oxo-4,7-dihydro-3H-pyrrolo[2,3-d]-pyrimidin-6-yl)-butyl]-thiophene-2-carbonyl}-amino)-pentanedioicAcid] | < 6.00 | – | 8.74 |

Results, then the compound that gave them:

| pIC50 [1] | pIC50 [2] | pIC50 [3] | Compound |
| --- | --- | --- | --- |
| 6.94 | 6.51 | 6.96 | Nc1nc2[nH]cc(CCCc3ccc(C(=O)N[C@@H](CCC(=O)O)C(=O)O)s3)c2c(=O)[nH]1 |
| 7.42 | 6.85 | 7.31 | Nc1nc2[nH]cc(CCCCc3ccc(C(=O)N[C@@H](CCC(=O)O)C(=O)O)s3)c2c(=O)[nH]1 |
| 6.61 | 7.24 | 7.34 | Nc1nc2[nH]cc(CCCCCc3ccc(C(=O)N[C@@H](CCC(=O)O)C(=O)O)s3)c2c(=O)[nH]1 |
| < 6.00 | < 6.00 | < 6.00 | Nc1nc2[nH]cc(CCCCCCc3ccc(C(=O)N[C@@H](CCC(=O)O)C(=O)O)s3)c2c(=O)[nH]1 |
